Reference: ChEMBL document CHEMBL3044602, “In vitro antiproliferative effect of -phenylethylamine derivatives and doxorubicin combinations on MCF/ADR cell lines” (Med Chem Res, 2013)

Columns and labels:
[1] = Cytotoxicity against Homo sapiens (human) MCF7/ADR cells assessed as inhibition of cell proliferation after 48 hr by SRB assay; type: cell-based, NCI/ADR-RES; settings: for IC10: human
[2] = target: ATP-dependent translocase ABCB1 (Homo sapiens, UniProt P08183); test: Inhibition of P-glycoprotein in Homo sapiens (human) MCF7/ADR cells assessed as doxorubicin-induced growth inhibition after 48 hr by SRB assay (Doxorubicin Rvb = 5.1 +/-1.2%); type: cell-based; settings: nci/adr-res
[3] = system: MCF7; test: Cytotoxicity against Homo sapiens (human) MCF7 cells assessed as inhibition of cell proliferation after 48 hr by SRB assay; type: cell-based; settings: mcf7, 48 h
[4] = Homo sapiens, NCI/ADR-RES, 48 h

ATP-dependent translocase ABCB1, sequence (P08183 whole entry): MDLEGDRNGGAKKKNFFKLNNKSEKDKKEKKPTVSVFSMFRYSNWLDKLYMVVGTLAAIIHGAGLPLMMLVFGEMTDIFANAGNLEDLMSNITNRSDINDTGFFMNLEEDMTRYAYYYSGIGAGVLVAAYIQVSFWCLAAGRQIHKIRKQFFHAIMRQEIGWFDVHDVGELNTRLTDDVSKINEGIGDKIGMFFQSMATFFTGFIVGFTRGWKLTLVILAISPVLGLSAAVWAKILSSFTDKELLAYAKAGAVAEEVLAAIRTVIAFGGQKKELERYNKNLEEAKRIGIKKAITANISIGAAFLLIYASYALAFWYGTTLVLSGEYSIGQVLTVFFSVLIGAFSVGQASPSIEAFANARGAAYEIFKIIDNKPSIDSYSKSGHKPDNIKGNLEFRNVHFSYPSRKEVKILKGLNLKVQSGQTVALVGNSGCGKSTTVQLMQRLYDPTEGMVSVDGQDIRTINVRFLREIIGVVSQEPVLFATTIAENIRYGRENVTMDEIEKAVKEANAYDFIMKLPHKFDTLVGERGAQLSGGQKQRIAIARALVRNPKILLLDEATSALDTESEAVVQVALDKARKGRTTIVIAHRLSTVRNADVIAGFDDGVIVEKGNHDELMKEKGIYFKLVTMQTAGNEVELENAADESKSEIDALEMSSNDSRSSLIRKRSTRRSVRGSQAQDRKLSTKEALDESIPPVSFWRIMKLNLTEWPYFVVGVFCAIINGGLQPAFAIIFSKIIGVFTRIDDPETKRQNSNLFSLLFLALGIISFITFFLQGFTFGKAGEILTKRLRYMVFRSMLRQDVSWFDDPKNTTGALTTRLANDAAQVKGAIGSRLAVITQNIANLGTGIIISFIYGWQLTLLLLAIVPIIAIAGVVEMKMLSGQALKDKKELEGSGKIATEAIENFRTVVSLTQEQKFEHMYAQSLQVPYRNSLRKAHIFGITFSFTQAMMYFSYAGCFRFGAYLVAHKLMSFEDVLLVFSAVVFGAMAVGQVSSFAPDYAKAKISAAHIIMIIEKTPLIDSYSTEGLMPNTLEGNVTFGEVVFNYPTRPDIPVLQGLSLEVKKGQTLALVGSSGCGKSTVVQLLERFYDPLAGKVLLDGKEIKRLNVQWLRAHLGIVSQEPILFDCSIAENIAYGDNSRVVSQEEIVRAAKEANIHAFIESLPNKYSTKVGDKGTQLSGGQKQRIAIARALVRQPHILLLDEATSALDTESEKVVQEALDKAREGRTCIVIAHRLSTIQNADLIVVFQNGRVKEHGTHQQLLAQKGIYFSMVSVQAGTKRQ

Structure (SMILES)	IC50 [1, 4]	IC10 ([1]; nci/adr-res, 48 h)	growth inhibition (GI) [2]	Activity [3]	IC50 ([1]; nci/adr-res)
COC(=O)/C(=C\c1ccc2c(c1)OCO2)CNCCc1ccc(OC)c(OC)c1	248 µM	13.8 µM	43.3%	Non-toxic	
COC(=O)/C(=C\c1ccccc1)CNCCc1ccc(OC)c(OC)c1	75.8 µM	12.9 µM	16.1%	Non-toxic	
COC(=O)C(CNCCc1ccc(OC)c(OC)c1)C(O)c1ccc(OC)c(OC)c1 (mixture of isomers)			6.8%	Non-toxic	
COC(=O)C(CNCCc1ccc(OC)c(OC)c1)Cc1ccc2c(c1)OCO2 (racemic)	188 µM	10.5 µM	5.8%	Non-toxic	
COC(=O)/C(=C\c1ccc([N+](=O)[O-])cc1)CNCCc1ccc(OC)c(OC)c1	0.89 µM	0.05 µM			
COC(=O)C(CNCCc1ccc(OC)c(OC)c1)C(O)c1ccc(OC)c(OC)c1 (single isomer, unassigned; form 2)		30.1 µM			298 µM
COC(=O)C(CNCCc1ccc(OC)c(OC)c1)Cc1ccc(OC)c(OC)c1 (racemic)	28.9 µM	2.39 µM	6.9%	Non-toxic	
COC(=O)C(CNCCc1ccc(OC)c(OC)c1)C(O)c1ccc(OC)c(OC)c1 (single isomer, unassigned; form 1)	371 µM	38.2 µM			
COC(=O)/C(=C\c1ccc(OC)c(OC)c1)CNCCc1ccc(OC)c(OC)c1	112 µM	7.47 µM	87.7%	Non-toxic	
COC(=O)C(CNCCc1ccc(OC)c(OC)c1)C(O)c1ccccc1 (mixture of isomers)	238 µM	14 µM	11.8%	Non-toxic	
COC(=O)C(CNCCc1ccc(OC)c(OC)c1)C(O)c1ccc2c(c1)OCO2 (mixture of isomers)	238 µM	20.7 µM	10.4%	Non-toxic	
COC(=O)C(CNCCc1ccc(OC)c(OC)c1)C(O)c1ccc([N+](=O)[O-])cc1 (centres undefined)	85.1 µM	15.7 µM	12.9%	Non-toxic	
COC(=O)C(CNCCc1ccc(OC)c(OC)c1)Cc1ccccc1 (racemic)	193 µM	15.2 µM	3.2%	Non-toxic	
